Experimental data as given in patent US20070003531A1, “Methods for improving immunotherapy by enhancing survival of antigen-specific cytotoxic T lymphocytes” (University of Connecticut, priority 2005, published 2007).
Entries after “also recorded” stand apart in the source; their conditions may differ.

Columns and labels:
Type in all cases: cell-based, human
[1] = tested on: phosphorylated Bim in CTL; assay: Generation of short phosphorylated Bim fragment in CTL during AICD; conditions: CTLs encountering the MART-1 peptide
Text: FIG. 16. Mitochondrial localization of JNK in the CTL. (A)—Heavy membrane fractions from CTLs in steady state (C), restimulated by the cognate peptide (M1) and control peptide (M3) and the corresponding cytosolic fractions (S-100) were probed for the presence for JNKs. As shown, JNK preferentially localized in the membrane fraction. (B)—The generation of short pBim fragment during AICD and the effect of SP600125 on the generation of this fragment. Mart-1 epitope specific control CTLs (c), and CTLs encountering the cognate peptide (M1), or encountering a control peptide (M3) and encountering the cognate peptide in the presence of SP600125 (SP) or encountering the cognate peptide in the presence of ERK1/2 inhibitor (PD)were probed with an anti-phosphorylated Bim antibody. A phosphorylated short fragment of Bim is generated in the CTLs encountering the MART-1 peptide and this is blocked by SP600125. (C)—Western blot of whole cell lysate of CTLs showing interaction between JNK and VDAC in CTLs (c=control, M1=CTL restimulated by the cognate peptide) Anti-CD8 Ab was used as a control antibody for immunoprecipitation.

[2] = tested on: MART-127-35 tetramer+/CD8+ CTLs; assay: Survival of antigen specific CTLs five days after secondary encounter of the epitope; conditions: day five in IL-15 after overnight co-culture with cognate epitope; inhibitor 25 μM then washed off
Experimental: FIG. 13. Survival of the antigen specific CTLs following secondary encounter of the epitope in the presence of anthra[1,9-cd]pyrazol-6(2H)-one (SP600125) and recovery of function in the pyrazoloanthrone rescued CTLs. Effector cells were co-cultured with peptide pulsed T2 cells in the presence or absence of the kinase inhibitors (25 μM). The cultures were washed about 18 h later and then recultured in IL-15 containing medium. On day five, the numbers of the viable antigen specific CTLs were determined. […] The number (11%) of MART-127-35 tetramer^+/CD8^+ population exposed to MART-127-35 peptide pulsed T2 cells (T2/M1) is a reflection of loss of epitope specific CTLs from AICD. […] (B) IFN-γ response by the recovered populations (M3=MAGE-3271-279, M1=MART-127-35).
Finally, the functional status of SP600125 rescued CTLs upon continuous culture was examined. After overnight exposure of the CTLs to the cognate epitope in the presence or absence of SP600125, the CTLs were washed and then maintained in continuous culture in IL-15 containing CM without the inhibitor. Five days after, the number of viable MART-127-35 tetramer positive cells were determined and their function was tested in the IFN-γ response assay. […] Remarkably, the rescued CTLs regained their capacity to synthesize IFN-γ (FIG. 13B).

[3] = tested on: c-jun phosphorylation/activation in Jurkat T cells; assay: JNK activation assay in PMA/ionomycin stimulated Jurkat cells; conditions: PMA (10 ng/ml)/ionomycin (0.5 μM); SP600125 25 μM
Experimental: FIG. 1. […] (A) Effect of the JNK inhibitor SP600125 on AICD in the MART-127-35 epitope specific CTL. Histogram represents FACS analysis of the percent of MART-127-35 epitope specific CTLs that were tetramer positive and annexin negative after restimulation with MAGE-3271-279 control peptide (M3) pulsed T2 cells or MART-127-35 peptide (M1) pulsed T2 cells either alone or re-stimulated after pre-incubation with JNK inhibitor SP600125, p38-kinase inhibitor SB203580, ERK1/2 inhibitor PD98059 or caspase-inhibitor z-VAD-fink. MAGE-3271-279. (B) JNK activation results in phosphorylation of c-Jun during AICD in CTL that is blocked by SP600125. Immunoblots show analyses of CTL extracts probed with anti-phosphor-c-Jun, anti-c-Jun, and anti-actin antibodies. […] (i) Jurkat cells were treated with PMA+ionomycin in the absence or presence of SP600125 and JNK activation (c-Jun phosphorylation) was assessed with anti-phospho-c-Jun antibody. […] (ii) Jurkat cells were treated with Staurosporine for 1 and 4 hrs in the absence (S) or presence of caspase inhibitor, z-VAD-fmk (CI), JNK inhibitor, SP600125 (SP) or ERK1/2 inhibitor PD98059 (PD) and cleavage of PARP was detected by immunoblotting, using actin as a loading control. […] Percent annexin positive cells in all samples were quantified by FACS analysis and shown below the blot […]

O=C1c2ccccc2-c2n[nH]c3cccc1c23 [SP600125, anthra[1,9-cd]pyrazol-6(2H)-one]
generation/phosphorylation of short phosphorylated Bim fragment [1]: inhibitable; also recorded: blocked
fraction of starting epitope specific population recovered [2]: larger fraction
c-Jun activation (phosphorylation) in Jurkat cells [3]: inhibitory effect; also recorded: abrogates
